The results in this text go back to patent US4088772A, “Methanodibenzocycloheptapyrroles” (E. I. Du Pont de Nemours and Company, priority 1975, dated 1978).

Counter-ions that a name gives are not always drawn. Like-named read-outs stand apart in the source and are kept apart here.

Data set [1] in a line: in vivo. The conditions noted are these: mouse, in vivo, po.
Data set [2] deals with female white mice. The data set can be described thus: animal or person. The conditions noted are these: oral, mice; for ED50: Mus musculus, po.
For data set [3], the system named is phenylquinone-induced writhing. The data set is described as follows: Phenylquinone writhing test (analgesia). In kind it is in vivo, mouse (Carworth CF1 S female). The conditions noted are these: for ED50: Mus musculus. From the text:
This mouse test is predictive of analgesic response in humans. [E. Siegmund, R. Cadmus and G. Lee, Proc. Soc.
ED50 values were obtained graphically from the data.
A general note: In writhing tests, fewer writhes than in controls are read as antinociception.

[4] abbreviates: read-out: Catatonia ED50, Table III.
Where [5] appears, read: read-out: Exploratory Loss Visual ED50, Table III.
[6] abbreviates: read-out: Muscle Tone ED50, Table III.
The mark [7] stands for this setting: read-out: Ptosis ED50, Table III.
Setting [8] is: read-out: Reflexes Grip ED50, Table III.
The mark [9] stands for this setting: read-out: Reflexes Lift ED50, Table III.
Setting [10] is: read-out: Reflexes Pinna ED50, Table III.
The mark [11] stands for this setting: read-out: Reflexes Grip ED50, Table 1.
[12] abbreviates: read-out: Catatonia ED50, Table 1.
[13] abbreviates: read-out: Exploratory Loss Visual ED50, Table 1.
The mark [14] stands for this setting: read-out: Muscle Tone ED50, Table 1.
The mark [15] stands for this setting: read-out: Reflexes Lift ED50, Table 1.
Setting [16] is: read-out: Reflexes Pinna ED50, Table 1.

Take `OCc1ccc2c(c1)[C@]13C[C@H]2c2ccccc2[C@H]1CN(CC1CCCC1)C3` (relative stereo) [Example 86, 2-Cyclopentylmethyl-2,3,8,12b-tetrahydro-1H-3a,8-methanodibenzo[3,4:6,7]cyclohepta[1,2-c]pyrrole-5-methanol Hydrochloride]: the median lethal dose (LD50) at 24 h in data set [1] is > 324 mg/kg. For the same compound, the ED50 in data set [2] (setting [4]) worked out at 60 mg/kg; in data set [2] (setting [5]), 12 mg/kg; in data set [2] (setting [6]), 60 mg/kg; in data set [2] (setting [7]), 7 mg/kg; in data set [2] (setting [8]), 200 mg/kg; in data set [2] (setting [9]), 36 mg/kg. The ED50 in data set [2] (setting [10]) stood at 20 mg/kg; in data set [3] (po, Table III, mice) it was 26 mg/kg.
`FCc1ccc2c(c1)[C@]13C[C@H]2c2ccccc2[C@H]1CN(CC1CCCC1)C3` (relative stereo) [Example 87, 5-Fluoromethyl-2-cyclopentylmethyl-2,3,8,12b-tetrahydro-1H-3a,8-methanodibenzo[3,4:6,7]cyclohepta[1,2-c]-pyrrole Hydrochloride]: the LD50 at 24 h in data set [1] is > 324 mg/kg. Moreover, the ED50 in data set [2] (setting [4]) is 36 mg/kg; in data set [2] (setting [5]), 12 mg/kg; in data set [2] (setting [6]), 36 mg/kg; in data set [2] (setting [7]) it was 7 mg/kg; in data set [2] (setting [8]), 300 mg/kg; in data set [2] (setting [9]), 36 mg/kg. Further, the ED50 in data set [2] (setting [10]) was 36 mg/kg; in data set [3] (po, Table III, mice), 78 mg/kg.
Take `CNS(=O)(=O)c1ccc2c(c1)[C@]13C[C@H]2c2ccccc2[C@H]1CN(CC1CCCC1)C3` (relative stereo) [Example 88, 2-Cyclopentylmethyl-2,3,8,12b-tetrahydro-1H-3a,8-methanodibenzo[3,4:6,7]cyclohepta[1,2-c]pyrrole-5-N-methylsulfonamide Hydrochloride]: the median lethal dose (LD50) at 24 h in data set [1] is > 324 mg/kg. The ED50 in data set [2] (setting [4]) is 300 mg/kg; in data set [2] (setting [5]) it was 20 mg/kg; in data set [2] (setting [6]), 200 mg/kg; in data set [2] (setting [7]) it was 36 mg/kg; in data set [2] (setting [8]), > 324 mg/kg; in data set [2] (setting [9]), 200 mg/kg. Besides, the median effective dose (ED50) was 100 mg/kg in data set [2] (setting [10]) and < 130 mg/kg in data set [3] (po, Table III, mice).
For `c1ccc2c(c1)C1CC3(CN(CC4CCCC4)CC23)c2ccccc21` (single isomer, unassigned; (-)) [(-)-Cyclopentylmethyl, 2-Cyclopentylmethyl-2,3,8,12b-tetrahydro-trans-1H,-3a,8-methanodibenzo[3,4:6,7]cyclohepta[1,2-c]pyrrole], in data set [1], the 50% effective dose (ED50) was > 324 mg/kg and the LD50 at 24 h was > 324 mg/kg. For the same compound, in data set [2] (setting [11]), the ED50 was found to be 200 mg/kg. In data set [2] (Table 1), the “Catatonia ED50” value is listed as 7 mg/kg, the “Exploratory Loss Visual ED50” value is < 4 mg/kg, the “Muscle Tone ED50” value is given as < 4 mg/kg and the “Ptosis ED50” value is < 4 mg/kg. Also, in data set [2] (Table 1), the “Reflexes Lift ED50” value is on record as 4 mg/kg and the “Reflexes Pinna ED50” value turned out to be 4 mg/kg. Besides, the “Phenylquinone Analgesia ED50” value in data set [3] (Table 1, oral, mice) is 1.2 mg/kg.
With `[O-][N+]1(CC2CCCC2)CC2c3ccccc3C3CC2(C1)c1ccccc13` (centres unmarked) [Cyclopentylmethyl-N-oxide, N-Oxide of 2-cyclopentylmethyl-2,3,8,12b-tetrahydro-1H-3a,8-methanodibenzo[3,4:6,7]cyclohepta[1,2-c]-pyrrole], the median effective dose (ED50) in data set [1] was > 324 mg/kg; in data set [2] (setting [12]) it was 36 mg/kg; in data set [2] (setting [13]) it was 12 mg/kg; in data set [2] (setting [14]), 12 mg/kg; in data set [2] (read-out: Ptosis ED50, Table 1), ≤ 4 mg/kg; in data set [2] (setting [11]) it was > 324 mg/kg. The ED50 in data set [2] (setting [15]) turned out to be 20 mg/kg; in data set [2] (setting [16]), 7 mg/kg; in data set [3] (po, Table 1, mice) it was 24 mg/kg. Further, the median lethal dose (LD50) at 24 h in data set [1] was > 324 mg/kg.
In data set [1], `CN1CC2c3ccccc3C3CC2(C1)c1ccccc13` (centres unmarked) [Example 1, 2-Methyl-2,3,8,12b-tetrahydro-1H-3a,8-methanodibenzo[3,4:6,7]cyclohepta[1,2-c]pyrrole] showed an LD50 at 24 h of 150 mg/kg. Also, the median effective dose (ED50) was 30 mg/kg in data set [1] (Tremors ED50, Table 1, mice); 30 mg/kg in data set [2] (setting [12]); 50 mg/kg in data set [2] (setting [13]); 100 mg/kg in data set [2] (setting [14]); 50 mg/kg in data set [2] (read-out: Ptosis ED50, Table 1); 150 mg/kg in data set [2] (setting [11]). In addition, the 50% effective dose (ED50) in data set [2] (setting [15]) came out at 30 mg/kg; in data set [2] (setting [16]), 30 mg/kg; in data set [3] (Table 1, oral, mice), 5.1 mg/kg.
For the compound `c1ccc2c(c1)C1CC3(CN(CC4CC4)CC23)c2ccccc21` (centres unmarked) [Example 6, 2-Cyclopropylmethyl-2,3,8,12b-tetrahydro-1H-3a,8-methanodibenzo[3,4:6,7]cyclohepta[1,2-c]pyrrole], the 50% lethal dose (LD50) at 24 h in data set [1] came out at 300 mg/kg. Besides, the 50% effective dose (ED50) is 100 mg/kg in data set [1] (Tremors ED50, Table 1, mice); 20 mg/kg in data set [2] (setting [12]); 20 mg/kg in data set [2] (setting [13]); 12 mg/kg in data set [2] (setting [14]); 20 mg/kg in data set [2] (read-out: Ptosis ED50, Table 1); 100 mg/kg in data set [2] (setting [11]). The ED50 was determined as 20 mg/kg in data set [2] (setting [15]); 7 mg/kg in data set [2] (setting [16]); 4.5 mg/kg in data set [3] (Table 1, oral, mice).
In the case of `C=CCN1CC2c3ccccc3C3CC2(C1)c1ccccc13` (centres unmarked) [Example 10, 2-Allyl-2,3,8,12b-tetrahydro-1H-3a,8-methanodibenzo-[3,4:6,7]cyclohepta[1,2-c]pyrrole], in data set [1], the LD50 at 24 h is > 324 mg/kg. Moreover, the ED50 in data set [1] (Tremors ED50, Table 1, mice) was 187 mg/kg; in data set [2] (setting [12]) it was 5 mg/kg; in data set [2] (setting [13]), 4.5 mg/kg; in data set [2] (setting [14]), 3.2 mg/kg; in data set [2] (read-out: Ptosis ED50, Table 1), < 3 mg/kg; in data set [2] (setting [11]), 150 mg/kg. Besides, the ED50 in data set [2] (setting [15]) was found to be 6 mg/kg; in data set [2] (setting [16]), 4 mg/kg; in data set [3] (Table 1, oral, mice), 1.9 mg/kg.
For `CCOC(=O)CCCN1CC2c3ccccc3C3CC2(C1)c1ccccc13` (centres unmarked) [Example 11, Ethyl 2,3,8,12b-Tetrahydro-1H-3a,8-methanodibenzo-[3,4:6,7]cyclohepta[1,2-c]pyrrole-2-butyrate], the ED50 was > 324 mg/kg in data set [1]; 100 mg/kg in data set [2] (setting [12]); 100 mg/kg in data set [2] (setting [13]); 200 mg/kg in data set [2] (setting [14]); 100 mg/kg in data set [2] (read-out: Ptosis ED50, Table 1); > 324 mg/kg in data set [2] (setting [11]). The ED50 is > 324 mg/kg in data set [2] (setting [15]); 100 mg/kg in data set [2] (setting [16]); 26 mg/kg in data set [3] (po, Table 1, mice). In addition, the LD50 at 24 h in data set [1] is > 324 mg/kg.
As for `CCN1CC2c3ccccc3C3CC2(C1)c1ccccc13` (centres unmarked) [Example 12, 2-Ethyl-2,3,8,12b-tetrahydro-1H-3a,8-methanodibenzo[3,4:6,7]cyclohepta[1,2-c]pyrrole], in data set [1], the 50% lethal dose (LD50) at 24 h worked out at 200 mg/kg. The 50% effective dose (ED50) in data set [1] (Tremors ED50, Table 1, mice) amounted to 200 mg/kg; in data set [2] (setting [12]), 12 mg/kg; in data set [2] (setting [13]), 20 mg/kg; in data set [2] (setting [14]) it was 36 mg/kg; in data set [2] (read-out: Ptosis ED50, Table 1), 12 mg/kg; in data set [2] (setting [11]), 100 mg/kg. Besides, the 50% effective dose (ED50) was 12 mg/kg in data set [2] (setting [15]); 12 mg/kg in data set [2] (setting [16]); 4.3 mg/kg in data set [3] (Table 1, oral, mice).
As to `CCCCN1CC2c3ccccc3C3CC2(C1)c1ccccc13` (centres unmarked) [Example 13, 2-n-Butyl-2,3,8,12b-tetrahydro-1H-3a,8-methanodibenzo[3,4:6,7]cyclohepta[1,2-c]pyrrole], the LD50 at 24 h in data set [1] was > 324 mg/kg. For the same compound, the ED50 in data set [1] (Tremors ED50, Table 1, mice) amounted to 300 mg/kg; in data set [2] (setting [12]), 12 mg/kg; in data set [2] (setting [13]), 12 mg/kg; in data set [2] (setting [14]), 12 mg/kg; in data set [2] (read-out: Ptosis ED50, Table 1), 7 mg/kg; in data set [2] (setting [11]), 200 mg/kg. In addition, the 50% effective dose (ED50) in data set [2] (setting [15]) is 7 mg/kg; in data set [2] (setting [16]), ≤ 4 mg/kg; in data set [3] (Table 1, oral, mice), 10.5 mg/kg.

Broadly, the LD50 is the dose at which mortality reaches 50%. High values mean a less toxic substance, low ones a more toxic substance. The term ED50 denotes the midpoint of the dose-response relation.
